Literature values, collected in patent US20110105453A1, “Superoxide Dismutase Mimics For The Treatment Of Optic Nerve And Retinal Damage” (ALCON, INC., priority 2003, published 2011).

Key:
[1] = tested on: rat ocular ischemia-reperfusion model; conditions: intravitreal injections (SOD protein)
[2] = tested on: light-induced retinal damage in albino rats
[3] = tested on: NADH-coenzyme Q1 reductase; conditions: uncouples mitochondrial respiration
[4] = tested on: cytochrome c oxidase; conditions: uncouples mitochondrial respiration
[5] = tested on: tryptophan hydroxylase

## CNC(=S)NC [dimethylthiourea]
[1]
  functional protection: 40%

## CC1(C)CC(O)CC(C)(C)N1[O] [4-hydroxy-2,2,6,6-tetramethylpiperidine-1-oxyl]
[2]
  inhibition of light-induced retinal damage: inhibited light-induced retinal damage

## NCCc1c[nH]c2c1C(=O)C(=O)C=C2 [T-4,5-D, tryptamine 4,5-dione]
[3]
  inhibition of NADH-coenzyme Q1 reductase: irreversible inhibition
[4]
  inhibition of cytochrome c oxidase: irreversible inhibition
[5]
  inactivation of tryptophan hydroxylase: irreversibly inactivates
